Structures can show the parent of a compound that is named as a salt. Active and inactive are the calls of the source.
How the values were obtained:
[1] = inhibitors of intracellular T. cruzi replication, confirmation, NIH3T3 host cells, beta-gal luminescence (AID 2044); assay type: functional, cell-based;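 note: intracellular parasites grown in NIH/3T3 mouse fibroblasts as host cells; luminescent beta-galactosidase reporter signal from transgenic T. cruzi replicating inside host cells; inhibitors lower the luminescence signal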
cells [2] = experiment: cells
[3] = cytotoxicity toward NIH3T3 fibroblasts, dose response, counter-screen, cell-based, ATP luminescence, mouse fibroblasts (AID 2010); assay type: functional;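 note: cells exposed to compound for about 90 hours before reading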
[4] = molecular target: Sphingosine 1-phosphate receptor 2 (Homo sapiens, UniProt O95136); experiment: Dose Response Cell Based Assay for Antagonists of the S1P2 Receptor. [Related pubchem assays: 856, 736 ]; assay type: functional
Sequence of Sphingosine 1-phosphate receptor 2 (O95136 whole entry): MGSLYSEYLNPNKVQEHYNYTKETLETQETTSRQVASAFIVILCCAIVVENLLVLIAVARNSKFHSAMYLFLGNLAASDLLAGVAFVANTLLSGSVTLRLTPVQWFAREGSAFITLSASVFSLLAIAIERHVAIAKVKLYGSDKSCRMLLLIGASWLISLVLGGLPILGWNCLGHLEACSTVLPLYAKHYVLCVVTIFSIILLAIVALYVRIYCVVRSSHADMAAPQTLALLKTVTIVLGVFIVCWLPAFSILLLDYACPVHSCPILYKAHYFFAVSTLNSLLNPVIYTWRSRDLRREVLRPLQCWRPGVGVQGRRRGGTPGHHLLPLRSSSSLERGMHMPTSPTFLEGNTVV

[5] = molecular target: T1, RNA-editing ligase 1, mitochondrial (Trypanosoma brucei brucei, UniProt P86926); experiment: TbREL1 ligase inhibitors, dose response, biochemical, fluorescence, Trypanosoma brucei (AID 1117295); assay type: functional
T1 sequence (P86926 whole entry): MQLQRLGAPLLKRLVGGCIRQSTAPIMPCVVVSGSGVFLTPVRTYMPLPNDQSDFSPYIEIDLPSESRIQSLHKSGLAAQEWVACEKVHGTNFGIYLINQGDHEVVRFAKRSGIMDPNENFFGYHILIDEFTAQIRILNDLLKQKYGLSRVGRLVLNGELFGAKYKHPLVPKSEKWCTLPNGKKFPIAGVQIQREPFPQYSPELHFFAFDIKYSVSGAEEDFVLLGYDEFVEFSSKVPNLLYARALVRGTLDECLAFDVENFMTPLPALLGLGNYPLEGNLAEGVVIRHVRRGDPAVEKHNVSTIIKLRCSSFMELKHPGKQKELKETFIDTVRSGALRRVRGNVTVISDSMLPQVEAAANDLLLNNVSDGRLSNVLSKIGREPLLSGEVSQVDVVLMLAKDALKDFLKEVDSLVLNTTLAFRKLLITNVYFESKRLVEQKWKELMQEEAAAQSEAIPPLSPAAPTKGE

[6] = Luminescence Cell-Based Dose Retest to Confirm Inhibitors of Cancer Stem Cells. [Related pubchem assays (depositor defined):AID2717, AID2721]; assay type: functional; details: Homo sapiens
[7] = THP-1 cell cytotoxicity, dose response, cytotoxicity control for Vif-APOBEC3G degradation inhibitor project, THP-1 cells (AID 1117359); assay type: functional; details: Human immunodeficiency virus 1, THP-1
Large T antigen = Large T antigen (Simian virus 40, UniProt P03070); assay type: functional, Betapolyomavirus macacae;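 note: Confirmatory-stage PubChem screen for compounds that inhibit SV40 T antigen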
Sequence of Large T antigen (P03070 whole entry): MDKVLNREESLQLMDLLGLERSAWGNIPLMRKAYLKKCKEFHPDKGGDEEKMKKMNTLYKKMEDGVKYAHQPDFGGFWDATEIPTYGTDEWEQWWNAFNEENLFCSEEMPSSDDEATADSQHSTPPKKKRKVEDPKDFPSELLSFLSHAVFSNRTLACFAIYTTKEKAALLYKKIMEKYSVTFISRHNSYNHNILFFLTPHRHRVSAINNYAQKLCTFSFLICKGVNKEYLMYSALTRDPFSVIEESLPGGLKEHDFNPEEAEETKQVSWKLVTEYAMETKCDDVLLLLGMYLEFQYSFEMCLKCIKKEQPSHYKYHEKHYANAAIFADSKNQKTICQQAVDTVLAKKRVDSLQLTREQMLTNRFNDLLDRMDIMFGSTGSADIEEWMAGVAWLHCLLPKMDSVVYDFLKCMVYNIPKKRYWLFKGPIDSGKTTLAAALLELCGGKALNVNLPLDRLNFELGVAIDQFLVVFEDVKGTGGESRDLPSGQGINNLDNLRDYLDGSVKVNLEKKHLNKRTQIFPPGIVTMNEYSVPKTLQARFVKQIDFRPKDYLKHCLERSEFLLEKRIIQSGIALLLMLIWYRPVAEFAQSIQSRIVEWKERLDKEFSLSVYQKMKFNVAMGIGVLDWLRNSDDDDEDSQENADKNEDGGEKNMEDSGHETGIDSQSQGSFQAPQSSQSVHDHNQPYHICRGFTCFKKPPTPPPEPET

[8] = molecular target: T2, Mannose-6-phosphate isomerase (Homo sapiens, UniProt P34949); experiment: inhibitors of human PMI, primary screen, biochemical, fluorescence intensity, coupled assay (AID 1209)
T2 sequence (P34949 whole entry): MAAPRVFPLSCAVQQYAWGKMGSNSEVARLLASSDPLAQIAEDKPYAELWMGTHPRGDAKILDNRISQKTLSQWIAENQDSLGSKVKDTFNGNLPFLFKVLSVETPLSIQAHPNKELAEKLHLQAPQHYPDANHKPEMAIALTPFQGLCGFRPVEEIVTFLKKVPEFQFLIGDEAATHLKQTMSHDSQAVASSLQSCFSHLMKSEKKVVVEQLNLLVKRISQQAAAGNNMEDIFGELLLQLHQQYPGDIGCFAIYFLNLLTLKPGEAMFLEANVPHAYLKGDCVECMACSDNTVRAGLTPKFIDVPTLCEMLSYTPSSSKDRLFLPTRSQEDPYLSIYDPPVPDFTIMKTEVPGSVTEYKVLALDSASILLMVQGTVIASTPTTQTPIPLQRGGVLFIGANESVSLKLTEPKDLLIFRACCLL

cells [9] = experiment: cells; remark: listed apart in the source
[10] = microbe, parasite or virus in culture; assay type: functional; details: Mycobacterium tuberculosis
[11] = cytotoxicity in HEK-293T NF-kB-Luc cells, dose response, cytotoxicity control for B/T-cell NF-kB inhibitor project, cell-based, uHTS hits (AID 489019); assay type: functional;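 note: IC50 reflects cytotoxicity as loss of cell viability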
[12] = cytotoxicity toward DRD oncogenic fibroblasts, dose response, cell-based, non-viral oncogenic, luminescence (AID 1934); assay type: functional; details: Homo sapiens
[13] = control 3'UTR Renilla luciferase suppression, dose response, counter-screen for Shn3 inhibitor project, cell-based, Clone20-Shn3RL, cherry-picked (AID 624133); assay type: functional
[14] = HepG2 cell cytotoxicity, dose response, cytotoxicity control for Shn3 inhibitor project, CellTiter-Glo, cherry-picked (AID 624134); assay type: functional, cell-based
INS1 = experiment: beta cell apoptosis inhibitors, cytokine rescue, dose response, luminescence, retest (AID 449756); assay type: functional, cell-based; details: Rattus norvegicus;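 note: cell death triggered by IL-1 beta plus TNF-alpha plus IFN-gamma mixture; protective hits raise ATP signal compared with cytokine alone wells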
BJ [15] = experiment: cytotoxicity toward BJ-TERT fibroblasts, dose response, cell-based, RAS-independent, luminescence (AID 1933); assay type: functional; details: Homo sapiens
[16] = growth suppression of PTEN-null colon cells, dose response, cell-based, HCT116 PTEN knockout (AID 1047); assay type: functional;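 note: HCT116 colon tumor cells with PTEN knocked out; cells exposed to compound for 60 hours before readout; potency for loss of cell viability measured by luminescence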
Jurkat = experiment: antigen receptor-induced NF-kB inhibitors, dose response, Jurkat, luciferase reporter, luminescence, B- and T-cell (AID 489004); assay type: functional, cell-based; details: Homo sapiens;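 note: NF-kB luciferase reporter Jurkat cells stimulated with PMA plus ionomycin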
BJ [17] = experiment: cytotoxicity toward BJ-TERT-LT-ST fibroblasts, dose response, cell-based, RAS-independent, luminescence (AID 1935); assay type: functional; details: Homo sapiens;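 note: BJ fibroblasts immortalized with TERT plus LT and ST oncogenes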
[18] = molecular target: Voltage-dependent T-type calcium channel subunit alpha-1H (Homo sapiens, UniProt O95180); assay type: functional;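 note: channel activity triggered by adding a high calcium stimulation buffer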
Sequence of Voltage-dependent T-type calcium channel subunit alpha-1H (O95180 whole entry): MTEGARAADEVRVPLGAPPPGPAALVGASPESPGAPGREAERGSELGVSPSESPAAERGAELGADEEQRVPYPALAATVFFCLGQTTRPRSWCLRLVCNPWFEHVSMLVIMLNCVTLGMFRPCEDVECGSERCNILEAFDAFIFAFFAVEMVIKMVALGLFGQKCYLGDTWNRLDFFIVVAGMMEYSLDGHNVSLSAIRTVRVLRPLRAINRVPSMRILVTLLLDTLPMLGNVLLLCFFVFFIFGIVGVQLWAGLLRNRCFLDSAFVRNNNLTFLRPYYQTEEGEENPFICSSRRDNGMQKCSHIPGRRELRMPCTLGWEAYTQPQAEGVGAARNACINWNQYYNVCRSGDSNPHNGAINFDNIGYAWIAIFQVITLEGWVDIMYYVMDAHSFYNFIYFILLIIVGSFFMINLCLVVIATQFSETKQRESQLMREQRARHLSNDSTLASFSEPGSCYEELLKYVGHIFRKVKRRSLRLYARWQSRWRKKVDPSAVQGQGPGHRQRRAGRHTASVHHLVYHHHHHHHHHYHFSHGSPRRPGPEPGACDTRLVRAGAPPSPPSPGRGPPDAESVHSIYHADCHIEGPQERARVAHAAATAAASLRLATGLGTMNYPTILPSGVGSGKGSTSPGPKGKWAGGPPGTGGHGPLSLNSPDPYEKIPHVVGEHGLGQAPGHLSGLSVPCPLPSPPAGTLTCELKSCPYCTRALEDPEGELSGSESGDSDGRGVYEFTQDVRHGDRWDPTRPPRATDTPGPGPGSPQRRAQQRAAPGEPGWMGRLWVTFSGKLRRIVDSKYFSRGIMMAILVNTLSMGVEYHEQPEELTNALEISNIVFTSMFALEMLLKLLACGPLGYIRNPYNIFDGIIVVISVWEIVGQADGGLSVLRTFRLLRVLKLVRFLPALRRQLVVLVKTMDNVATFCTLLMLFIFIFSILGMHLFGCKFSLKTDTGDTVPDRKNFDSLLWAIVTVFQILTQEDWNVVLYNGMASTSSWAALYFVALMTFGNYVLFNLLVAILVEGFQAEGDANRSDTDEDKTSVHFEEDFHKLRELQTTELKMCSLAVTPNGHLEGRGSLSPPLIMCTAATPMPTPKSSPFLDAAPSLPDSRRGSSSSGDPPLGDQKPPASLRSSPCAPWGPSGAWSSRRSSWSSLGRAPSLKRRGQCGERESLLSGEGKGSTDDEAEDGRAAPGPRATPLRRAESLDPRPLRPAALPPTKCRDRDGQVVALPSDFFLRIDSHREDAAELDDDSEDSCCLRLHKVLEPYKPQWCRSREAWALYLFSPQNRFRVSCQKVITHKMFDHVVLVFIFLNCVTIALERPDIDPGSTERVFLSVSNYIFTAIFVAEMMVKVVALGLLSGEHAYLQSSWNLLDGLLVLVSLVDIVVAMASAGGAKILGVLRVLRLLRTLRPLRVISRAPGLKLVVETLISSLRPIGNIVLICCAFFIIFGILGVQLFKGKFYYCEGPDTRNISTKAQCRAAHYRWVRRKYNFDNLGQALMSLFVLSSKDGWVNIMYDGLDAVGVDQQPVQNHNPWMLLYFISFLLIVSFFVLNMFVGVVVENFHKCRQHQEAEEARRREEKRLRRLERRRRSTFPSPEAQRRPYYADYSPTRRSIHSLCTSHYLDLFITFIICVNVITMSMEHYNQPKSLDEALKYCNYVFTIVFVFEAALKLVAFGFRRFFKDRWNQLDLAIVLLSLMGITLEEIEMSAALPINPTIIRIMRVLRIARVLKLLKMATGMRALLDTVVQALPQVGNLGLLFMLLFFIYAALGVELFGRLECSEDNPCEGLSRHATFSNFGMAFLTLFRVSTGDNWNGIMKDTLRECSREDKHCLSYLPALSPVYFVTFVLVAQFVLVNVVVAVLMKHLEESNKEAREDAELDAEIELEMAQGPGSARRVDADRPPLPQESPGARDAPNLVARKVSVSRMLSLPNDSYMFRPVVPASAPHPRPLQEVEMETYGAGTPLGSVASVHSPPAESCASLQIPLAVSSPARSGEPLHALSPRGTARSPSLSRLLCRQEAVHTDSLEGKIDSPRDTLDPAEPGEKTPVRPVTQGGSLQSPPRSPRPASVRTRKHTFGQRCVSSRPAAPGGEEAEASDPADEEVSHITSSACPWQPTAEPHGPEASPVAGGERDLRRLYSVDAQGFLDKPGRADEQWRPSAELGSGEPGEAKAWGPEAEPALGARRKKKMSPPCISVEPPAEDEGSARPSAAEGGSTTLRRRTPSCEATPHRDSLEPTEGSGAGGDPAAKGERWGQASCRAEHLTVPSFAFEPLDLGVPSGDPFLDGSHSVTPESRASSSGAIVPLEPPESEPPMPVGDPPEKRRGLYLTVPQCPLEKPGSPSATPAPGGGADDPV

[19] = molecular target: T3, Calpain-2 catalytic subunit (Sus scrofa, UniProt P43367); experiment: pig calpain II inhibitor potency, dose response, biochemical, fluorogenic peptide substrate (AID 1420); assay type: functional
T3 sequence (P43367 whole entry): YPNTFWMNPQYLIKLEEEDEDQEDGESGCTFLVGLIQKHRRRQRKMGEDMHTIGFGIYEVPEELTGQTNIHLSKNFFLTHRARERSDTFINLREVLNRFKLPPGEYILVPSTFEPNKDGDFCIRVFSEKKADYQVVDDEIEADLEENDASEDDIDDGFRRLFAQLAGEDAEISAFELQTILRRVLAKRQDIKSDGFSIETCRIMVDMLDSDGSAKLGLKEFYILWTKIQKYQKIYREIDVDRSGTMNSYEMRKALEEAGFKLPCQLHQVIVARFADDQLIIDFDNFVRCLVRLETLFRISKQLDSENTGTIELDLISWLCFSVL

[20] = growth suppression of beta-catenin-knockout colon cells, dose response, cell-based, HCT116, human colon tumor (AID 1045); assay type: functional;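 note: HCT116 colon tumor cells with beta catenin knocked out; cells exposed to compound for 60 hours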
[21] = Shn3 3'UTR reporter inhibitors, dose response, cell-based, Clone20 osteoblasts, firefly luciferase, cherry-picked (AID 624132); assay type: functional;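 note: firefly luciferase luminescence from reporter carrying the Shn3 3'UTR in osteoblasts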
BJ [22] = experiment: cells; assay type: functional, cell-based; details: Homo sapiens
[23] = CellTiter-Glo luminescent dose response of DLD-1 viability loss (AID 1117352); assay type: functional
[24] = Concentration-dependent survival of SW480 colon cancer line, luminescence detection with CellTiter-Glo, half-maximal inhibitory concentration (AID 1117338); assay type: functional
[25] = cytotoxicity toward HT-29 cells – cell-based, CellTiter-Glo luminescence, IC50, dose response (AID 1117330); assay type: functional
[26] = cytotoxicity toward Colo320 cells – cell-based, CellTiter-Glo luminescence, IC50, dose response (AID 1117334); assay type: functional; details: COLO 320
[27] = cytotoxicity toward HCT116 cells – cell-based, CellTiter-Glo luminescence, IC50, dose response (AID 1117332); assay type: functional; details: HCT-116
[28] = RKO cell viability reduction, dose response, CellTiter-Glo luminescence (AID 1117322); assay type: functional

COc1cc(CN(C)CCc2ccccc2)ccc1OCc1ccccc1
EC50 [1]: < 0.1 µM (active)
EC50 (cells [2]): 0.006 µM (active)
EC50 [3]: 19.1 µM (active)

Cc1n[nH]c(C)c1N1C(=O)c2cccc3c(Br)ccc(c23)C1=O
IC50 [4]: > 75.5 µM (not active)

CC(C)Nc1nc(NCCOc2ccccc2Cl)c2sc(-c3ccccc3)cc2n1
IC50 [5]: > 96.6 µM (inactive)

Cc1ccc(/C=N/c2ccccc2C(N)=O)s1
AC50 [6]: 2.44 µM (active)
CC50 [7]: 2.54 µM (active)

COc1ccccc1N1CCN(/N=C/c2ccc(O)c(O)c2)CC1
IC50 (Large T antigen): 15 µM (active)
IC50 [8]: > 50 µM (not active)

C/C(N)=C(/C#N)C(=O)CSc1cc(C)c2cc(C)cc(C)c2n1
EC50 [1]: 4.13 µM (active)
EC50 [3]: > 60 µM (not active)
IC50 (cells [9]): 12 µM (active)

COC(=O)C1=C(C)N(Cc2ccccc2C(F)(F)F)C(NCc2ccccc2)=NC1c1cccc(F)c1 (stereo not given)
IC50 [5]: > 96.6 µM (inactive)

N#CC(c1cccc(Cl)c1)c1ccc2c(C(F)(F)F)cc(C(F)(F)F)nc2n1 (stereo not given)
CC50 [10]: < 0.16 µM (active)
IC50 [11]: > 80 µM (inactive)
EC50 [12]: 3.04 µM (active)
AC50 [13]: 0.54 µM (active)
AC50 [14]: 0.805 µM (active)
IC50 [4]: 0.922 µM (active)
AC50 (INS1): 0.881 µM (active)
EC50 (BJ [15]): 2.77 µM (active)
EC50 [16]: 0.235 µM (active)
IC50 (Jurkat): 34.5 µM (inactive)
EC50 (BJ [17]): 6.56 µM (active)
EC50 [18]: 3.85 µM (active)
IC50 [19]: 6.77 µM (not active)
EC50 [20]: 0.267 µM (active)
AC50 [21]: 0.689 µM (active)
EC50 (BJ [22]): 3.68 µM (inconclusive)

CC(C)(C)NCC(O)c1cc(O)cc(O)c1 (stereo not given) [TERBUTALINE SULFATE]
IC50 [23]: > 20 µM (inactive)
IC50 [24]: > 20 µM (inactive)
IC50 [25]: > 20 µM (inactive)
IC50 [26]: > 20 µM (inactive)
IC50 [27]: > 20 µM (inactive)
IC50 [28]: > 20 µM (inactive)

Reference: ChEMBL document CHEMBL1201862, “PubChem BioAssay data set” (2004)
